Experimental data: patent US20240166652A1, “MODULATORS OF THE INTEGRATED STRESS PATHWAY” (Calico Life Sciences LLC, priority 2017, published 2024)

These compounds were tested on ATF4 luciferase reporter in HEK293T cells (assay: ATF4-Luc assay (ATF4 luciferase reporter, tunicamycin-treated HEK293T cells)). Settings: Homo sapiens, HEK-293T; HEK293T cells carrying the ATF4 luciferase reporter, 1 μg/mL tunicamycin, 7 hours.
Assay type: cell-based, human

Compared with Cc1cc(Cl)ncc1OCC(=O)NC12CC(NC(=O)COc3ccc(Cl)c(F)c3)(C1)C2 [Compound 243, 2-(4-chloro-3-fluorophenoxy)-N-(3-{2-[(6-chloro-4-methylpyridin-3-yl)oxy]acetamido}bicyclo[1.1.1]pentan-1-yl)acetamide], Cc1ccc(OCC(=O)NC23CC(NC(=O)COc4ccc(Cl)c(F)c4)(C2)C3)c(C)n1 [Compound 232, 2-(4-chloro-3-fluorophenoxy)-N-(3-{2-[(2,6-dimethylpyridin-3-yl)oxy]acetamido}bicyclo[1.1.1]pentan-1-yl)acetamide] is higher in EC50: 0.25 to 0.5 µM for the first, 0.5 to 2 µM for the second. The first is the more potent here.

O=C(COc1ccc(Cl)c(F)c1)NC12CCC(NC(=O)COc3ccc(Cl)c(F)c3)(CC1)C(N1CC(O)C1)C2 (centres unmarked) [Compound 719, N,N′-[2-(3-hydroxyazetidin-1-yl)bicyclo[2.2.2]octane-1,4-diyl]bis[2-(4-chloro-3-fluorophenoxy)acetamide]] and CC(C)(O)C1CC2(NC(=O)COc3ccc(Cl)c(F)c3)CCC1(NC(=O)COc1ccc(Cl)c(F)c1)CC2 (centres unmarked) [Compound 566, N,N′-[2-(2-hydroxypropan-2-yl)bicyclo[2.2.2]octane-1,4-diyl]bis[2-(4-chloro-3-fluorophenoxy)acetamide]] fall in the same range of EC50: 0.01 to 0.05 µM for the first, 0.01 to 0.05 µM for the second.

First: CN1C(=O)C2(NC(=O)COc3ccc(Cl)c(F)c3)CCC1(NC(=O)COc1ccc(Cl)c(F)c1)CC2 [Compound 605, N,N′-(2-methyl-3-oxo-2-azabicyclo[2.2.2]octane-1,4-diyl)bis[2-(4-chloro-3-fluorophenoxy)acetamide]]
Second: O=C(COc1ccc(Cl)c(Cl)c1)NC12CCC(NC(=O)COc3ccc(Cl)c(F)c3)(CC1)C(=O)N2 [Compound 602, 2-(4-chloro-3-fluorophenoxy)-N-{1-[2-(3,4-dichlorophenoxy)acetamido]-3-oxo-2-azabicyclo[2.2.2]octan-4-yl}acetamide]
The EC50 of the first is higher: 0.05 to 0.25 µM for the first, less than 0.01 µM for the second. The second is the more potent here.

O=C(COc1ccc(Cl)c(F)c1)NC12CCC(NC(=O)COc3ccc(OC(F)(F)F)cc3)(CC1)[C@@H](O)C2 [Compound 505, 2-(4-chloro-3-fluorophenoxy)-N-[(3S)-3-hydroxy-4-{2-[4-(trifluoromethoxy)phenoxy]acetamido}bicyclo[2.2.2]octan-1-yl] acetamide] and O=C(COc1ccc(Cl)c(F)c1)NC12CCC(NC(=O)COc3ccc(F)cc3)(CC1)[C@H](O)C2 (single isomer, unassigned) [Compound 353] cannot be ordered by EC50: less than 0.01 µM for the first, less than 0.01 µM for the second.

First: O=C(CC(=O)c1ccc(Cl)cc1)NC12CCC(NC(=O)COc3ccc(Cl)c(F)c3)(CC1)[C@@H](O)C2 [Compound 807, N-{(3S)-4-[2-(4-chloro-3-fluorophenoxy)acetamido]-3-hydroxybicyclo[2.2.2]octan-1-yl}-3-(4-chlorophenyl)-3-oxopropanamide]
Second: O=C(COc1ccc(Cl)c(F)c1)NC12CCC(NC(=O)COc3ccc(Cl)cn3)(CC1)[C@@H](O)C2 [Compound 640, 2-(4-chloro-3-fluorophenoxy)-N-[(3S)-4-{2-[(5-chloropyridin-2-yl)oxy]acetamido}-3-hydroxybicyclo[2.2.2]octan-1-yl]acetamide]
The EC50 of the first is higher: 0.01 to 0.05 µM for the first, less than 0.01 µM for the second.

First: O=C(COc1ccc(Cl)c(F)c1)NC12CC(N(CCCOc3ccc(Cl)c(F)c3)CCCOc3ccc(Cl)c(F)c3)(C1)C2 [Compound 704, N-(3-{bis[3-(4-chloro-3-fluorophenoxy)propyl]amino}bicyclo[1.1.1]pentan-1-yl)-2-(4-chloro-3-fluorophenoxy)acetamide]
Second: O=C(COc1ccc(Cl)c(F)c1)NC12CC(NC(=O)COc3ccc(Cl)c(I)c3)(C1)C2 [Compound 260, 2-(4-chloro-3-fluorophenoxy)-N-{3-[2-(4-chloro-3-iodophenoxy)acetamido]-bicyclo[1.1.1]pentan-1-yl}acetamide]
The EC50 of the first is higher: 0.25 to 0.5 µM for the first, less than 0.01 µM for the second.

First: COC(=O)c1ccc(OCC(=O)NC23CC(NC(=O)COc4ccc(Cl)c(F)c4)(C2)C3)cn1 [Compound 264, methyl 5-[2-({3-[2-(4-chloro-3-fluorophenoxy)acetamido]bicyclo-[1.1.1]pentan-1-yl}amino)-2-oxoethoxy]pyridine-2-carboxylate]
Second: O=C(COc1ccc(OC(F)F)cc1)NC12CC(NC(=O)COc3ccc(Cl)c(F)c3)(C1)C2 [Compound 397, 2-(4-chloro-3-fluorophenoxy)-N-(3-{2-[4-(difluoromethoxy)phenoxy]acetamido}bicyclo[1.1.1]pentan-1-yl)acetamide]
The EC50 of the first is higher: 0.5 to 2 µM for the first, 0.01 to 0.05 µM for the second.

First: O=C(COc1ccc(Cl)c(F)c1)NC12CCC(NC(=O)COc3cnn(CC(F)(F)F)c(=O)c3)(CC1)C(O)C2 (centres unmarked) [Compound 334, 2-(4-chloro-3-fluorophenoxy)-N-[3-hydroxy-4-(2-{[6-oxo-1-(2,2,2-trifluoroethyl)-1,6-dihydropyridazin-4-yl]oxy}acetamido)bicyclo[2.2.2]octan-1-yl]acetamide]
Second: O=C(COc1ccc(Cl)c(F)c1)NC12CCC(NC(=O)COc3cccnc3)(CC1)[C@@H](O)C2 [Compound 495, 2-(4-chloro-3-fluorophenoxy)-N-[(3S)-3-hydroxy-4-{2-[(pyridin-3-yl)oxy]acetamido}bicyclo[2.2.2]octan-1-yl]acetamide]
The EC50 of the first is higher: 0.5 to 2 µM for the first, 0.01 to 0.05 µM for the second. The second is the more potent here.

First: O=C(COc1ccc(Cl)c(F)c1)NC12CCC(NC(=O)COc3ccc(Cl)c(F)c3)(CC1)C(NCC(F)(F)F)C2 (centres unmarked) [Compound 714, N,N′-{2-[(2,2,2-trifluoroethyl)amino]bicyclo[2.2.2]octane-1,4-diyl}bis[2-(4-chloro-3-fluorophenoxy)acetamide]]
Second: CN(CCO)C1CC2(NC(=O)COc3ccc(Cl)c(F)c3)CCC1(NC(=O)COc1ccc(Cl)c(F)c1)CC2 (centres unmarked) [Compound 711, N,N′-{2-[(2-hydroxyethyl)(methyl)amino]bicyclo[2.2.2]octane-1,4-diyl}bis[2-(4-chloro-3-fluorophenoxy)acetamide]]
The EC50 of the first is higher: 0.01 to 0.05 µM for the first, less than 0.01 µM for the second.

First: Cc1cccc(COCC(=O)NC23CC(NC(=O)COc4ccc(Cl)c(F)c4)(C2)C3)c1 [Compound 140, 2-(4-chloro-3-fluorophenoxy)-N-(3-{2-[(3-methylphenyl)methoxy]acetamido}-bicyclo[1.1.1]pentan-1-yl)acetamide]
Second: CN(C)c1cccc(CCOCC(=O)NC23CC(NC(=O)COc4ccc(Cl)c(F)c4)(C2)C3)c1 [Compound 145, 2-(4-chloro-3-fluorophenoxy)-N-[3-(2-{2-[3-(dimethylamino)phenyl]ethoxy}-acetamido)bicyclo[1.1.1]pentan-1-yl]acetamide]
The EC50 of the first is lower: 0.05 to 0.25 µM for the first, greater than 2 µM for the second.

O=C(COc1cc(F)c2cn[nH]c2c1)NC12CCC(NC(=O)COc3ccc(OC(F)(F)F)c(F)c3)(CC1)[C@@H](O)C2 [Compound 724] and O=C(COc1ccccc1)NC12CCC(NC(=O)COc3ccc(Cl)c(F)c3)(CC1)[C@@H](O)C2 [Compound 840, 2-(4-chloro-3-fluorophenoxy)-N-[(2S)-2-hydroxy-4-(2-phenoxyacetamido)bicyclo[2.2.2]octan-1-yl]acetamide] cannot be ordered by EC50: less than 0.01 µM for the first, less than 0.01 µM for the second.

First: CC(C)(C)c1ccc(OCC(=O)NC23CCC(NC(=O)COc4ccc(Cl)c(F)c4)(CC2)C[C@@H]3O)cc1 [Compound 506, 2-(4-tert-butylphenoxy)-N-{(2S)-4-[2-(4-chloro-3-fluorophenoxy)acetamido]-2-hydroxybicyclo[2.2.2]octan-1-yl}acetamide]
Second: CC(C)c1cc(OCC(=O)NC23CCC(NC(=O)COc4ccc(Cl)c(F)c4)(CC2)[C@@H](O)C3)cc(C(C)C)c1 [Compound 478, 2-(4-chloro-3-fluorophenoxy)-N-[(2S)-4-{2-[3,5-di(propan-2-yl)phenoxy]acetamido}-2-hydroxybicyclo[2.2.2]octan-1-yl]acetamide]
The EC50 of the first is lower: 0.25 to 0.5 µM for the first, greater than 2 µM for the second. The first is the more potent here.

First: O=C(COc1ccc(Cl)c(F)c1)NC12CCC(NC(=O)COc3ncnc4sccc34)(CC1)[C@@H](O)C2 [Compound 514, 2-(4-chloro-3-fluorophenoxy)-N-[(3S)-3-hydroxy-4-{2-[(thieno[2,3-d]pyrimidin-4-yl)oxy]acetamido}bicyclo[2.2.2]octan-1-yl]acetamide]
Second: O=C(Cc1ccc(Cl)c(F)c1)NC12CCC(NC(=O)COc3ccc(Cl)c(F)c3)(CC1)[C@@H](O)C2 [Compound 608, 2-(4-chloro-3-fluorophenoxy)-N-{(2S)-4-[2-(4-chloro-3-fluorophenyl)acetamido]-2-hydroxybicyclo[2.2.2]octan-1-yl}acetamide]
The EC50 of the first is lower: 0.01 to 0.05 µM for the first, 0.05 to 0.25 µM for the second.

First: O=C(COc1ccc(Cl)c(F)c1)NC12CC(NC(=O)[C@@H](O)c3ccc(Cl)cc3)(C1)C2 [Compound 307, (2S)—N-{3-[2-(4-chloro-3-fluorophenoxy)acetamido]bicyclo[1.1.1]pentan-1-yl}-2-(4-chlorophenyl)-2-hydroxyacetamide]
Second: O=C(COc1ccc(Cl)c(F)c1)NC12CC(NC(=O)Nc3ccc(Cl)cc3)(C1)C2 [Compound 431, 2-(4-chloro-3-fluorophenoxy)-N-(3-{[(4-chlorophenyl)carbamoyl]amino}bicyclo[1.1.1]pentan-1-yl)acetamide]
The EC50 of the first is higher: greater than 2 µM for the first, 0.05 to 0.25 µM for the second.

Compared with O=C(CCOCc1cccc(Cl)c1)NC12CC(NC(=O)COc3ccc(Cl)c(Cl)c3)(C1)C2 [Compound 167, 3-[(3-chlorophenyl)methoxy]-N-{3-[2-(3,4-dichlorophenoxy)acetamido]-bicyclo[1.1.1]pentan-1-yl}propanamide], O=C(COc1ccc(Cl)c(F)c1)NC12CC(NC(=O)Nc3ccc(Cl)cc3O)(C1)C2 [Compound 432, 2-(4-chloro-3-fluorophenoxy)-N-(3-{[(4-chloro-2-hydroxyphenyl)carbamoyl]amino}bicyclo[1.1.1]pentan-1-yl)acetamide] is lower in EC50: 0.5 to 2 µM for the first, 0.05 to 0.25 µM for the second. The second is the more potent here.

N#Cc1ccc(OCC(=O)NC23CC(NC(=O)COc4ccc5c(c4)OC(F)(F)O5)(C2)C3)cn1 [Compound 267, 2-[(6-cyanopyridin-3-yl)oxy]-N-(3-{2-[(2,2-difluoro-2H-1,3-benzodioxol-5-yl)oxy]acetamido}bicyclo[1.1.1]pentan-1-yl)acetamide] and COCC(=O)Nc1cc(Cl)ccc1OCC(=O)NC12CC(NC(=O)COc3ccc(Cl)c(F)c3)(C1)C2 [Compound 800, 2-(4-chloro-3-fluorophenoxy)-N-(3-{2-[4-chloro-2-(2-methoxyacetamido)phenoxy]acetamido}bicyclo[1.1.1]pentan-1-yl)acetamide] fall in the same range of EC50: 0.05 to 0.25 µM for the first, 0.05 to 0.25 µM for the second.
